Laboratory results reported in patent US7781187B2, “Fluorescent dyes” (Corning Incorporated, priority 2005, dated 2010).
Read-outs that look alike come from different tables or passages of the source.

Columns and labels:
dsDNA [1] = test: ssDNA/dsDNA selectivity in the plate reader assay (FIG. 3)
From the text: FIG. 3 illustrates the ssDNA/dsDNA selectivity of the fluorescent dyes of the present invention, HE-HE and 95, versus the commercially available fluorescent dye TOTO-1™ in the plate reader assay. […] By learning more about the binding modes of the disclosed dyes, it should be possible to design and synthesize members of the family optimized for dsDNA detection.

[2] = Fluorescence excitation and emission spectra of the dyes in buffer (Fluorolog-3 spectrometer); type: physicochemical; parameters: key to Excitation max. / Emission max.: peak wavelengths in nm
From the text: The fluorescence of the exemplary fluorescent dyes in buffer was examined on a Fluorolog®-3 (a trademark of Spex Industries Inc.) spectrometer. The fluorescent dyes of the present invention have large Stokes shifts; the excitation and emission maxima are close to or greater than 100 nm apart. Peak wavelengths are tabulated in Table 2 along with two commercially available fluorescent dyes, TOTO-1TM and YO-[…]TM (trademarks of Molecular Probes, Inc.). The Stokes shifts of TOTO-1TM and YO-[…]TM are small in comparison to the dyes of the present invention.

dsDNA (20 mer) = test: Emission intensity of dye with equimolar dsDNA relative to free dye (fluorescence spectrometer); conditions: for direction of change in emission intensity upon addition of DNA / effect of ssDNA and dsDNA on dye emission: FIG. 2; for Free dye rel. to dsDNA: equimolar dsDNA (20 mer), emission intensity ratio
From the text: (§1) FIG. 2 illustrates the effect of ssDNA and dsDNA on dye emission. […] All the dyes reported here show a larger change in emission intensity upon the addition of dsDNA than they do upon the addition of ssDNA; in some cases (GA, 95) this change is positive, in others it is negative (HE, HE-HE, FI).
Emission intensities of the fluorescent dyes of the present invention and TOTO-1™ at 1×10^−5 M in 1×PCR buffer were compared in the absence of DNA (free dye emission) and in the presence of equimolar dsDNA or ssDNA (20 mer) on the fluorescence spectrometer. […]

dsDNA [3] = test: Titration of dyes with dsDNA in 96-well microplate (sensitivity and dynamic range, SpectraMax Gemini plate reader)
Protocol: The fluorescent dyes shown in Table 5 were titrated with dsDNA in order to determine the sensitivity (lowest detection limit) and dynamic range. A 96-well polystyrene Corning Costar® (a trademark of Corning Incorporated) microwell plate was loaded with 100 μL/well of dye mixed with various levels of dsDNA and incubated at room temperature for 2 hours allowing the mixture to equillibrate. The dye fluorescence was then measured on a SpectraMax® (a trademark of Molecular Devices Corp.) Gemini Plate-reader. Relative fluorescence units (RFU) were then plotted against DNA concentration in pg/μL.

ssDNA (20 mer) = test: Emission intensity of dye with equimolar ssDNA relative to free dye (fluorescence spectrometer); conditions: dye 1×10^−5 M in 1×PCR buffer; for change of the emission intensity in the presence of ssDNA: equimolar ssDNA; for Free dye rel. to ssDNA: equimolar ssDNA (20 mer), emission intensity ratio
From the text: as §1
Emission intensities of the fluorescent dyes of the present invention and TOTO-1™ at 1×10^−5 M in 1×PCR buffer were compared in the absence of DNA (free dye emission) and in the presence of equimolar dsDNA or ssDNA (20 mer) on the fluorescence spectrometer.
The fluorescent dyes of the present invention have a large Stokes shift allowing the use of less sophisticated equipment for the detection of the emission intensity.

[4] = Stokes shift of MH dyes (FIG. 4); type: physicochemical
From the text: Unlike Fluorescein and other commercially available dyes whose peak excitation and emission wavelengths are extremely close the MH dyes have ˜200 nm between peaks.

[5] = test system: double-stranded DNA (dsDNA); conditions: on a microplate reader; cited from earlier work
[6] = commercial dye data from Molecular Probes catalog; cited from earlier work
[7] = dye 1×10^−5 M in 1×PCR buffer, equimolar dsDNA

C[n+]1c(/C=C/c2ccc(N(CCO)CCO)cc2)sc2ccccc21 [Dye 95]
ssDNA/dsDNA selectivity (dsDNA [1]): significant preference for dsDNA
Emission max. [2]: 585
Excitation max. [2]: 500
Stokes shift [2]: 85 nm
direction of change in emission intensity upon addition of DNA (dsDNA (20 mer)): positive
dynamic range compared with TOTO-1™ (dsDNA [3]): larger dynamic range
sensitivity compared with TOTO-1™ (dsDNA [3]): comparable

C[n+]1c(/C=C/c2ccc(SCCO)cc2)sc2ccccc21 [FI]
Emission max. [2]: 546
Excitation max. [2]: 382
Stokes shift [2]: 164 nm
change of the emission intensity in the presence of ssDNA (ssDNA (20 mer)): very little change
Free dye rel. to ssDNA (ssDNA (20 mer)): 0.98
direction of change in emission intensity upon addition of DNA (dsDNA (20 mer)): negative
effect of ssDNA and dsDNA on dye emission (dsDNA (20 mer)): most pronounced
change of the emission intensity in the presence of dsDNA (dsDNA (20 mer); [7]): 28.7 times
Free dye rel. to dsDNA (dsDNA (20 mer); dye 1×10^−5 M in 1×PCR buffer): 28.7

CN(CCO)c1ccc(/C=C/c2sc3ccccc3[n+]2C)cc1 [GA]
Emission max. [2]: 587
Excitation max. [2]: 512
Stokes shift [2]: 75 nm
direction of change in emission intensity upon addition of DNA (dsDNA (20 mer)): positive

C[n+]1c(/C=C/c2ccc(OCCOCCOCCOc3ccc(/C=C/c4sc5ccccc5[n+]4C)cc3)cc2)sc2ccccc21 [HE-HE]
ssDNA/dsDNA selectivity (dsDNA [1]): only slightly more sensitive towards dsDNA than ssDNA
Emission max. [2]: 616
Excitation max. [2]: 400
Stokes shift [2]: 216 nm
Free dye rel. to ssDNA (ssDNA (20 mer)): 1.19
direction of change in emission intensity upon addition of DNA (dsDNA (20 mer)): negative
effect of ssDNA and dsDNA on dye emission (dsDNA (20 mer)): most pronounced
change of the emission intensity in the presence of dsDNA (dsDNA (20 mer); [7]): 13.5 times
Free dye rel. to dsDNA (dsDNA (20 mer); dye 1×10^−5 M in 1×PCR buffer): 13.5
dynamic range compared with TOTO-1™ (dsDNA [3]): greater dynamic range
sensitivity compared with TOTO-1™ (dsDNA [3]): more sensitive

COc1ccc(/C=C/c2sc3ccccc3[n+]2C)cc1 [HE]
Emission max. [2]: 500
Excitation max. [2]: 385
Stokes shift [2]: 115 nm
direction of change in emission intensity upon addition of DNA (dsDNA (20 mer)): negative

CN(C)c1ccc(/C=C/c2ccc(C(=O)[O-])s2)cc1.[Li+] [MH1]
Stokes shift (between peak excitation and emission wavelengths) [4]: ~200 nm

O=C([O-])c1ccc(-c2ccc(/C=C/c3ccc(N(CCO)CCO)cc3)s2)s1.[Na+] [MH3]
Stokes shift (between peak excitation and emission wavelengths) [4]: ~200 nm

CN(C)CCCN(CCCN(C)C)c1cc(C=C2Sc3ccccc3N2C)c2ccccc2[n+]1-c1ccccc1 [PicoGreen™]
dynamic range [5]: ~3 orders of magnitude
sensitivity for double-stranded DNA (dsDNA) [5]: 250 pg/mL

CN1/C(=C/c2cc[n+](CCC[N+](C)(C)CCC[N+](C)(C)CCC[n+]3ccc(/C=C4\Sc5ccccc5N4C)c4ccccc43)c3ccccc23)Sc2ccccc21.[I-].[I-].[I-].[I-] [TOTO-1™, reference compound]
Emission max. [6]: 533
Excitation max. [6]: 514
Stokes shift [6]: 19 nm
ssDNA/dsDNA selectivity (dsDNA [1]): superior selectivity
change of the emission intensity in the presence of ssDNA (ssDNA (20 mer)): very little change
Free dye rel. to ssDNA (ssDNA (20 mer)): 0.95
change of the emission intensity upon interaction with dsDNA (dsDNA (20 mer); [7]): ~3 orders of magnitude
Free dye rel. to dsDNA (dsDNA (20 mer); dye 1×10^−5 M in 1×PCR buffer): 0.003

CN1C(=CC=Cc2cc[n+](CCC[N+](C)(C)C)c3ccccc23)Oc2ccccc21.[I-].[I-] [YO-PRO-3 ™]
Emission max. [6]: 631
Excitation max. [6]: 612
Stokes shift [6]: 19 nm
